Reference: PubChem BioAssay (NCI)
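All cell lines were grown in 96-well plates and treated with compound for 48 hours. At the GI50, growth is halved. TGI: concentration producing complete growth inhibition.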

Columns and labels:
Assay in all cases: DTP human tumour cell line panel, 48 h
OVCAR-8 ovarian = system: OVCAR-8 ovarian
IGROV1 ovarian = system: IGROV1 ovarian
HOP-62 NSCLC = system: HOP-62 NSCLC
SK-MEL-2 melanoma = system: SK-MEL-2 melanoma
SK-MEL-28 melanoma = system: SK-MEL-28 melanoma
DU-145 prostate = system: DU-145 prostate
OVCAR-5 ovarian = system: OVCAR-5 ovarian
SN12C renal = system: SN12C renal
NCI-H522 lung = system: NCI-H522 lung
HS 578T breast = system: HS 578T breast

Row | Compound | TGI (OVCAR-8 ovarian) [µM] | TGI (IGROV1 ovarian) [µM] | TGI (HOP-62 NSCLC) [µM] | TGI (SK-MEL-2 melanoma) [µM] | TGI (SK-MEL-28 melanoma) [µM] | TGI (DU-145 prostate) [µM] | TGI (OVCAR-5 ovarian) [µM] | TGI (SN12C renal) [µM] | GI50 (OVCAR-8 ovarian) [µM] | GI50 (IGROV1 ovarian) [nM] | GI50 (NCI-H522 lung) [µM] | TGI (NCI-H522 lung) [µM] | GI50 (HOP-62 NSCLC) [µM] | GI50 (SK-MEL-2 melanoma) [mM] | GI50 (SK-MEL-28 melanoma) [µM] | GI50 (HS 578T breast) [µM] | TGI (HS 578T breast) [µM] | GI50 (DU-145 prostate) [µM] | GI50 (OVCAR-5 ovarian) [µM] | GI50 (SN12C renal) [µM]
1 | O=S(=O)(c1ccccc1)N1CN2CN(C1)CN(S(=O)(=O)c1ccccc1)C2 | > 100 | > 100 | > 100 | > 100 | > 100 | > 100 | > 100 | > 100 |  |  |  |  |  |  |  |  |  |  |  | 
2 | Cc1ccc(/C=C/c2c(C(=O)/C=C/c3ccc(Cl)cc3)c(C)nc3ccccc23)cc1 | 6.46 | 2.38 | 4.68 | 4.96 | 3.41 | 3.27 | 5.86 |  | 2.17 | 1030 | 1.86 | 5.94 | 2.15 | 0.00201 | 1.84 | 2.75 | 8.66 | 1.74 | 2.16 | 
3 | CCOc1ccc(OCC)c([P+](c2ccccc2)(c2ccccc2)c2ccccc2)c1 | 12.5 | 13.3 | 3.92 |  | 16.8 |  | 6.91 | 5.61 |  |  |  |  |  |  |  |  |  |  |  | 
4 | CC(=O)OCC1OC(OCc2ccccc2)C(Br)C(OC(C)=O)C1OC(C)=O (stereo not given) | > 100 | > 100 | > 100 |  | > 100 |  | > 100 | > 100 |  |  |  | > 100 |  |  |  |  |  |  |  | 
5 | CC1=C(C(=O)NCc2ccccc2)C(c2ccccc2C)C(C(=O)NCc2ccccc2)=C(C)N1 | 32.8 | > 72.3 | 69.7 | 38.5 | > 67.3 |  | > 95.5 | > 63 |  |  |  | 66.2 |  |  |  |  |  |  |  | 
6 | Cc1cc(=O)n(-c2c(C)cccc2Cl)c(/C=C(\O)c2ccncc2)n1 | > 100 | > 100 | > 100 | > 100 | > 100 |  | > 100 | > 100 |  |  |  | > 100 |  |  |  |  |  |  |  | 
7 | COc1ccc(S(=O)(=O)N[C@H](C(=O)O)c2ccccc2)cc1 | > 100 | > 100 | > 100 | > 100 | > 100 |  | > 100 | > 100 |  |  |  |  |  |  |  |  |  |  |  | 
8 | O=C(N/C(=C\c1ccccc1Cl)c1nc2ccccc2[nH]1)c1ccccc1 | > 100 | > 100 |  | 51.8 | > 100 |  | > 100 | 61.5 |  |  |  | 72.5 |  |  |  |  |  |  |  | 
9 | CCOC(=O)C(NO)C(Sc1ccccc1)c1ccc(OC)cc1 (stereo not given) | > 100 | > 100 | > 100 | > 100 | > 100 |  | > 100 | > 100 |  |  |  | > 100 |  |  |  |  |  |  |  | 
10 | NC(Cc1c[nH]c2ccc(F)cc12)C(=O)O (stereo not given) | > 2500 |  | 2160 | > 2500 | > 2500 | > 2500 | > 2500 | > 2500 | 751 |  | 1460 | > 2500 | 480 | 2.25 | 795 | 506 | 1590 | 1310 | 814 | 918
